Where two headings read alike, the source gives them in different places. No end group written: not given here.
Key:
[1] = system: Pseudomonas aeruginosa CMCC10104; assay type: cell-based; details: for MIC: Pseudomonas aeruginosa CMCC10104, microtiter dilution, LB medium without salt, 10^4-10^5 CFU/mL, 37°C, 24 h, OD620, Table 2
Experimental: (§1) All strains were cultured on Mueller-Hinton medium.

[2] = system: Acinetobacter baumannii clinical isolates; assay type: cell-based; details: microtiter dilution, 37°C, 24 h, OD620
Experimental: as §1

human erythrocytes = assay: Minimum hemolytic concentration (MHC); assay type: cell-based
Experimental: The MHCs were measured by the method as described in Chen et al.: peptides were added to 1% human erythrocytes in phosphate-buffered saline (0.08 mol/L NaCl, 0.043 mol/L Na2HPO4, 0.011 mol/L KH2PO4) and then kept at 37°C for 1 h in microtiter plates. The supernatants were collected by centrifugation (800 g), and the OD562 of each supernatant was determined. We chose a 0.1% Triton X-100 solution as the positive control because this solution causes the total release of hemoglobin. We defined the MHC as the highest peptide concentration that caused no detectable release of hemoglobin (the ratio of the OD562 for the peptide solution to the OD562 for the positive control should be less than 1%).

[3] = Circular dichroism, percentage helicity; assay type: physicochemical; details: CD, 100 μM peptide, 10 mM sodium phosphate pH 7.5, 50% trifluoroethanol
Experimental: CD spectra were obtained with a Jasco J-710 instrument (Jasco, Tokyo, Japan) utilizing quartz cells with a 2 mm path length and peptide concentrations of 100 μM in a 10 mM sodium phosphate buffer with a pH of 7.5 containing 50% trifluoroethanol. Each spectrum was obtained from an average of 5 pairs of duplicates, and the percentage helicity of each peptide was determined.
The hydrophobic moments were determined with the HeliQuest web server, which can be used to evaluate amphipathicity. The percent helix values were determined based on CD spectra.

[4] = system: Micrococcus luteus CMCC28001; details: microtiter dilution, 37°C, 24 h, OD620
Text: (§2) Twenty-two clinical isolates and night standard laboratory strains were used in this study: 4 Acinetobacter baumannii, 4 Pseudomonas aeruginosa, 3 Staphylococcus epidermidis, and 6 Klebsiella pneumonia (Changhai Hospital, Shanghai, China); 5 methicillin-resistance Staphylococcus aureus (Ruijin Hospital, Shanghai, China); Staphylococcus aureus CMCC26003; Bacillus subtilis DB430;Bacillus pumilus CMCC63202; Micrococcus luteus CMCC28001; E. coli ATCC8099; Klebsiella pneumoniae CMCC46117;Salmonella paratyphi B CMCC50094; Pseudomonas aeruginosa CMCC10104; Micrococcus S1.634. In addition, Pseudomonas aeruginosa CMCC10104 was used during the design of the peptides for evaluating antimicrobial activities. All strains were cultured on Mueller-Hinton medium.
(§3) The antibacterial activities of the different peptides were evaluated using the minimum inhibitory concentration (MIC). The process followed the standard microtiter dilution method in LB medium without salt. Briefly, bacteria were grown overnight in LB at 37°C and diluted in the same medium. Then, 100 μL of the medium was dispensed into each well of a 96-well plate. The number of bacteria was between 10^4 and 10^5 CFU/mL. Serial dilutions of peptides were performed consecutively in each well in 10 μL. Plates were incubated at 37°C for 24 h; then, the OD620 was measured to determine the MIC of each peptide.

[5] = system: Pseudomonas aeruginosa clinical isolates; details: range over 4 clinical isolates
Text: as §2, §3

[6] = system: Soluble wall Micrococcus S1.634; details: microtiter dilution, 37°C, 24 h, OD620
Text: as §2, §3

[7] = system: Bacillus pumilus CMCC63202; details: microtiter dilution, 37°C, 24 h, OD620
Text: as §2, §3

[8] = system: Staphylococcus aureus CMCC26003; details: microtiter dilution, 37°C, 24 h, OD620
Text: as §2, §3

E. coli ATCC8099 = details: microtiter dilution, 37°C, 24 h, OD620
Text: as §2, §3

[9] = system: Staphylococcus epidermidis clinical isolates; details: range over 3 clinical isolates
Text: as §2, §3

[10] = system: Gram-positive and Gram-negative bacteria and 22 clinical isolates; details: overall statement
Text: as §2, §3

Bacillus subtilis DB430 = details: microtiter dilution, 37°C, 24 h, OD620
Text: as §2, §3

MRSA clinical isolates = details: range over 5 clinical MRSA isolates
Text: as §2, §3

[11] = system: Klebsiella pneumoniae CMCC46117; details: microtiter dilution, 37°C, 24 h, OD620
Text: as §2, §3

[12] = system: Klebsiella pneumonia clinical isolates; details: range over 6 clinical isolates
Text: as §2, §3

[13] = system: Salmonella paratyphi B CMCC50094; details: microtiter dilution, 37°C, 24 h, OD620
Text: as §2, §3

[14] = MHC/MIC ratio, MHC human erythrocytes, MIC Pseudomonas aeruginosa
[15] = 1% human erythrocytes in PBS, 37°C, 1 h, OD562, highest concentration with no detectable hemoglobin release (<1% of 0.1% Triton X-100)

“KWKLFKKIPKFLHLAKKF-NH2 [Peptide P18, reference compound]” gave a Therapeutic index ([1]; CMCC10104, 24 h) of 10, an MIC [1] of 25 µg/mL and an MIC ([2]; clinical isolate b-01) of 6.25 µg/mL. The MIC ([2]; clinical isolate b-02) was 25 µg/mL, the MIC ([2]; clinical isolate b-03) was 12.5 µg/mL and the MIC ([2]; clinical isolate b-04) was 12.5 µg/mL. For the same substance, the MHC (human erythrocytes) was 250 µg/mL.
Substance KWKSFIKKLTSKFLHSAKKF-NH2 [Peptide S16] has a Therapeutic index [1, 14] of 160, an MIC [1] of 3.125 µg/mL and an MIC ([2]; clinical isolate b-01) of 3.125 µg/mL. It also gave an MIC ([2]; clinical isolate b-02) of 6.25 µg/mL, an MIC ([2]; clinical isolate b-03) of 6.25 µg/mL and an MIC ([2]; clinical isolate b-04) of 3.125 µg/mL. For the same substance, the MHC (human erythrocytes; [15]) was greater than 500 µg/mL.
With KWKSFINKLTSKFLHSAKKF-NH2 [Peptide N7] the Therapeutic index [1, 14] was 40, the MIC [1] was 12.5 µg/mL and the MHC (human erythrocytes; [15]) was greater than 500 µg/mL.
For KWKSFIKKKTSKFLHSAKKF-NH2 [Peptide K9], the MIC [1] was greater than 50 µg/mL.
KWKSFIKKLTSKKLHSAKKF-NH2 [Peptide K13] gave an MIC [1] greater than 50 µg/mL.
KWNSFIKKLTSKFLHSAKKF-NH2 [Peptide N3] showed an MIC [1] of 12.5 µg/mL.
KFKSFIKKLTSKFLHSAKKF-NH2 [Peptide F2] showed a Therapeutic index [1, 14] of 20, an MIC [1] of 12.5 µg/mL and an MHC (human erythrocytes; [15]) of 250 µg/mL.
With KWKSFIKKLTSKFLHSADKF-NH2 [Peptide D18] the Therapeutic index [1, 14] was 20, the MIC [1] was 25 µg/mL and the MHC (human erythrocytes; [15]) was greater than 500 µg/mL.
KWKSFIKKAKTSFLHSAKKF-NH2 [Peptide A9] gave a Therapeutic index [1, 14] of 20, an MIC [1] of 25 µg/mL and an MHC (human erythrocytes; [15]) greater than 500 µg/mL.
With “KWKSFIKKLASKFLHSAKKF-NH2 [Peptide A10, S16 derivative by single amino acid substitution]” the Therapeutic index [1, 14] was 20, the MIC [1] was 12.5 µg/mL and the “%Helix” value [3] was 72.5%. It also gave an MHC (human erythrocytes; [15]) of 250 µg/mL.
With KWKSFIKKLTSKFLHSKKKF-NH2 [Peptide K17] the Therapeutic index [1, 14] was 40, the MIC [1] was 12.5 µg/mL and the MHC (human erythrocytes; [15]) was greater than 500 µg/mL.
KWKSFIKKLTSKFLHLAKKF-NH2 [CP-P] showed a Therapeutic index [1, 14] of 20, an MIC [1] of 12.5 µg/mL and an MHC (human erythrocytes; [15]) of 250 µg/mL.
In the case of KWKSFKKKLTSKFLHSAKKF-NH2 [Peptide K6], the MIC [1] is reported as 12.5 µg/mL.
For “KWKSFIKKLTSKFLHSANKF-NH2 [Peptide N18, S16 derivative by single amino acid substitution]”, the Therapeutic index [1, 14] was 80, the MIC [1] was 6.25 µg/mL and the “%Helix” value [3] was 37.2%. It also gave an MHC (human erythrocytes; [15]) greater than 500 µg/mL.
KWKSFIKKSTSKFLHSAKKF-NH2 [Peptide S9] showed a Therapeutic index [1, 14] of 10, an MIC [1] of 50 µg/mL and an MHC (human erythrocytes; [15]) greater than 500 µg/mL.
In the case of “KWKSFIKKLTSKALHSAKKF-NH2 [Peptide A13, S16 derivative by single amino acid substitution]”, the Therapeutic index [1, 14] is reported as 80, the MIC [1] is reported as 6.25 µg/mL and the “%Helix” value [3] is reported as 45.9%. It also gave an MHC (human erythrocytes; [15]) greater than 500 µg/mL.
For KWKSFIKKLTSKFLHSAKKN-NH2 [Peptide N20], the Therapeutic index [1, 14] was 80, the MIC [1] was 6.25 µg/mL and the MHC (human erythrocytes; [15]) was greater than 500 µg/mL.
With KWKSFIKKLTKKFLHSAKKF-NH2 [Peptide K11] the MIC [4] was 2 µg/mL, the MIC [5] was 1.0−8.0 μg/mL and the MIC [6] was 1 µg/mL. For the same substance, the MIC [7] was 0.5 µg/mL, the MIC [8] was 0.5 µg/mL and the MIC (E. coli ATCC8099) was 0.5 µg/mL. For the same substance, the MIC [9] was 0.5−8 μg/mL, the MICs [10] was “less than 10 μg/mL” and the MIC (Bacillus subtilis DB430) was 2 µg/mL. The MIC (MRSA clinical isolates) was 0.25−4 μg/mL, the MIC [11] was 2 µg/mL and the MIC [12] was 0.5−4.0 μg/mL. For the same substance, the MIC [13] was 2 µg/mL, the Therapeutic index [1, 14] was 320 and the MIC [1] was 1.6 µg/mL. For the same substance, the MIC ([2]; clinical isolate b-01) was 0.8 µg/mL, the MIC ([2]; clinical isolate b-02) was 3.125 µg/mL and the MIC ([2]; clinical isolate b-04) was 1.6 µg/mL.
In the case of KWKSFIKKRTSKFLHSAKKF-NH2 [Peptide R9], the MIC [1] is reported as greater than 50 µg/mL.
For “KWKSFIKKLTLKFLHSKKKF-NH2 [Peptide L11, S16 derivative by single amino acid substitution]”, the MIC [1] was greater than 50 µg/mL.
KWKSFIKKLTDKFLHSAKKF-NH2 [Peptide D11] showed a Therapeutic index [1, 14] of 20, an MIC [1] of 25 µg/mL and an MHC (human erythrocytes; [15]) greater than 500 µg/mL.
With KWKSFIKKLLSKFLHSAKKF-NH2 [Peptide L10] the Therapeutic index [1, 14] was 10, the MIC [1] was 12.5 µg/mL and the MHC (human erythrocytes; [15]) was less than 125 µg/mL.

Reference: paper PMC3299254 (International Journal of Microbiology, 2012)
